In patent US11041181B2, “Promoter and method for producing purine nucleotide using the same” (CJ CHEILJEDANG CORPORATION, priority 2019, dated 2021):

Experiments:
[1] = tested on: CJI2332; type: cell-based, Corynebacterium stationis
Experimental: (§1) To prepare an IMP-producing strain derived from the ATCC6872 strain, the culture of ATCC6872 was suspended in a phosphate buffer (pH 7.0) or citrate buffer (pH 5.5) at a density of 10^7 cells/mL to 10^8 cells/mL and treated with UV at room temperature or 32° C. for 20 min to 40 min to induce a mutation. The strain was washed with a 0.85% saline solution twice and spread, after dilution, on a minimal medium containing 1.7% agar which was supplemented with a resistance-providing material at an appropriate concentration, and thereby colonies were obtained. Each colony was cultured in a nutrient medium and then cultured in a seed culture medium for 24 hours. […] To prepare a strain producing IMP at high concentration, adenine-auxotroph, guanine-leaky type, lysozyme sensitivity, 3,4-dehydroproline resistance, streptomycin resistance, sulfaguanidine resistance, norvaline resistance, and trimethoprim resistance were provided by performing the corresponding procedures in a sequential manner. As a result, the CJI2332 strain provided with resistance to the above materials and having excellent IMP productivity was finally selected.
(§2) Minimal medium: 2% glucose, 0.3% sodium sulfate, 0.1% monopotassium phosphate, 0.3% dipotassium phosphate, 0.3% magnesium sulfate, 10 mg/L calcium chloride, 10 mg/L iron sulfate, 1 mg/L zinc sulfate, 3.6 mg/L manganese chloride, 20 mg/L L-cysteine, 10 mg/L calcium pantothenate, 5 mg/L thiamine hydrochloride, 30 μg/L biotin, 20 mg/L adenine, 20 mg/L guanine, adjusted to pH 7.3.

[2] = tested on: ATCC6872; test: Resistance/sensitivity characteristics of strain on minimal medium with resistance-providing material; type: cell-based, Corynebacterium stationis
Experimental: as §1, §2

Compound | resistance [1] | resistance [2] | other results
Lysozyme |  |  | Lysozyme sensitivity [1]: 8 µg/mL; Lysozyme sensitivity [2]: 80 µg/mL
[H]/N=C(/N)NS(=O)(=O)c1ccc(N)cc1 [Sulfaguanidine] | 200 µg/mL | 50 µg/mL | 
COc1cc(Cc2cnc(N)nc2N)cc(OC)c1OC [Trimethoprim] | 100 µg/mL | 20 µg/mL | 
O=C(O)C1C=CCN1 (stereo not drawn) [3,4-Dehydroproline] | 3,500 μg/mL | 1,000 μg/mL | 
[H]/N=C(/N)N[C@H]1[C@H](O)[C@@H](O)[C@H](O[C@@H]2O[C@@H](C)[C@](O)(C=O)[C@H]2O[C@@H]2O[C@@H](CO)[C@H](O)[C@@H](O)[C@@H]2NC)[C@@H](N/C(N)=N\[H])[C@@H]1O [Streptomycin] | 2,000 μg/mL | 500 µg/mL | 
CCC[C@H](N)C(=O)O [Norvaline] |  |  | Norvaline resistance [1]: 2 mg/mL; Norvaline resistance [2]: 0.2 mg/mL
